Reference: patent US10239873B2, “7-azaindole or 4,7-diazaindole derivatives as IKKϵ epsilon and TBK1 inhibitor and pharmaceutical composition comprising same” (GREEN CROSS CORPORATION, priority 2015, dated 2019)

How the values were obtained:
TBK1 = target: T1, TBK1 (Homo sapiens, UniProt Q9UHD2); test: ADP-Glo Kinase Assay, inhibition activity on TBK1; assay type: biochemical
T1 construct: purchased Promega (Invitrogen is also named in the same bracket) V4158; PR8031B; V3991 (not assigned to the two kinases)
T1 sequence (Q9UHD2 1-729): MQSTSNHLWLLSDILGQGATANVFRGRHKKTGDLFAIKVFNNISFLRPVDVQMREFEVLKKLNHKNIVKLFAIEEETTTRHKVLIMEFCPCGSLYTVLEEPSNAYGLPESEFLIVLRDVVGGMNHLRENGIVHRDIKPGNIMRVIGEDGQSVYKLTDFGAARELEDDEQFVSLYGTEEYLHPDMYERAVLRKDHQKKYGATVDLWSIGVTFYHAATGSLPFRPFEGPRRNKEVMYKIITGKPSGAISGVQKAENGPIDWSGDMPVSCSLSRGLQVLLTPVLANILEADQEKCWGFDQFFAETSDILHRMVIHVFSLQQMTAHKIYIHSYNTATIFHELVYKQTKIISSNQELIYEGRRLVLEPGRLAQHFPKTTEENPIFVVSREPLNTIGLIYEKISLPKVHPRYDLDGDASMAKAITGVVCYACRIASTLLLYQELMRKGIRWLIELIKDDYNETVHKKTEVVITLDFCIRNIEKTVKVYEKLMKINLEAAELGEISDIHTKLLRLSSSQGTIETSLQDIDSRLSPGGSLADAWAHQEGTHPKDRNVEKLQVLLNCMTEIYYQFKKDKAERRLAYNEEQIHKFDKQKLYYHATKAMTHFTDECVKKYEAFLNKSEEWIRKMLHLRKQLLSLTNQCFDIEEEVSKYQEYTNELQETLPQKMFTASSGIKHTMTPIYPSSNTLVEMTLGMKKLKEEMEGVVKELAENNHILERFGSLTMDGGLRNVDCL
Procedure, shortened: (§1)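 In 40 mM Tris pH 7.5 with 20 mM MgCl2 and 0.1 mg/mL BSA, each enzyme (IKKε or TBK1 kinase system) was run according to the manufacturer's protocol. ADP formed was detected by ADP-Glo luminescence.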

IKKε = target: T2, IKKε (Homo sapiens, UniProt Q14164); test: ADP-Glo Kinase Assay, inhibition activity on IKKε; assay type: biochemical
T2 construct: purchased Promega and/or Invitrogen V4158; PR8031B; V3991 (not assigned to the two kinases)
T2 sequence (Q14164 1-716): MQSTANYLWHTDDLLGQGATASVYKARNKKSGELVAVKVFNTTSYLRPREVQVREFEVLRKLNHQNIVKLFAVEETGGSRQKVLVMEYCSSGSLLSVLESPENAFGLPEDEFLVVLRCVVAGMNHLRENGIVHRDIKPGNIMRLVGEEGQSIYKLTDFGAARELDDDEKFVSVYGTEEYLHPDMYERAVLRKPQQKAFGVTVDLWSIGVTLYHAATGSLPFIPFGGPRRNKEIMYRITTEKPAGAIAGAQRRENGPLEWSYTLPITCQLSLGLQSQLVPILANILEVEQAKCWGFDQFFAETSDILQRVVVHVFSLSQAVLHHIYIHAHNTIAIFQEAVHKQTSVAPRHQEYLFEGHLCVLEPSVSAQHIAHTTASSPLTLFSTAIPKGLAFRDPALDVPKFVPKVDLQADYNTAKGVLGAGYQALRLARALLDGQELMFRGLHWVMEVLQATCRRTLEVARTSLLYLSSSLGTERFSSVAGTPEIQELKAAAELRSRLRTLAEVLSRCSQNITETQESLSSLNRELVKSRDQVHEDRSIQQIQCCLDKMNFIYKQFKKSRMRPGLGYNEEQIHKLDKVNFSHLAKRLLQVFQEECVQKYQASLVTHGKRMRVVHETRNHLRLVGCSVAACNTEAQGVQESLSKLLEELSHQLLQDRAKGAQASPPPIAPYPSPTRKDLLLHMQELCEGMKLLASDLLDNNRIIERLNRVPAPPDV
Procedure, shortened: as §1

SMILES	IC50 (TBK1)	IC50 (IKKε)
CCC1C=C(c2c[nH]c3ncc(-c4ccc(C(=O)N5CCN(C)CC5)cc4)cc23)CCN1C(=O)NC(C)C (stereo not shown) [Example 113, 6-Ethyl-N-isopropyl-4-(5-(4-(4-methylpiperazine-1-carbonyl)phenyl)-1H-pyrrolo[2,3-b]pyridin-3-yl)-3,6-dihydropyridine-1(2H)-carboxamide]	18 nM	46 nM
CC(C)NC(=O)N1CCC(c2c[nH]c3ncc(-c4ccc(CN5CCOCC5)s4)cc23)=CC1(C)C [Example 114, N-isopropyl-2,2-dimethyl-4-(5-(5-(morpholinomethyl)thiophen-2-yl)-1H-pyrrolo[2,3-b]pyridin-3-yl)-5,6-dihydropyridine-1(2H)-carboxamide]	5.9 nM	8 nM
CC(C)NC(=O)N1C(C)C=C(c2c[nH]c3ncc(-c4ccc(CN5CCOCC5)s4)cc23)CC1C (stereo not shown) [Example 115, N-isopropyl-2,6-dimethyl-4-(5-(5-(morpholinomethyl)thiophen-2-yl)-1H-pyrrolo[2,3-b]pyridin-3-yl)-3,6-dihydropyridine-1(2H)-carboxamide]	360 nM	430 nM
CC1C=C(c2c[nH]c3ncc(-c4ccc(CN5CCOCC5)s4)cc23)CC(C)N1C(=O)NC1CCCC1 (stereo not shown) [Example 116, N-cyclopentyl-2,6-dimethyl-4-(5-(5-(morpholinomethyl)thiophen-2-yl)-1H-pyrrolo[2,3-b]pyridin-3-yl)-3,6-dihydropyridine-1(2H)-carboxamide]	1280 nM	1520 nM
CC(C)NC(=O)N1C2C=C(c3c[nH]c4ncc(-c5ccc(CN6CCOCC6)s5)cc34)CC1CC2 (stereo not shown) [Example 117, N-isopropyl-3-(5-(5-(morpholinomethyl)thiophen-2-yl)-1H-pyrrolo[2,3-b]pyridin-3-yl)-8-azabicyclo[3.2.1]oct-3-ene-8-carboxamide]	2700 nM	4790 nM
CC(C)NC(=O)N1C2C=C(c3c[nH]c4ncc(-c5ccc(CN6CCOCC6)s5)cc34)CC1CCC2 (stereo not shown) [Example 118, N-isopropyl-3-(5-(5-(morpholinomethyl)thiophen-2-yl)-1H-pyrrolo[2,3-b]pyridin-3-yl)-9-azabicyclo[3.3.1]non-3-ene-9-carboxamide]	340 nM	610 nM
COc1ccc(-c2cnc3[nH]cc(C4=CC(c5ccccc5)N(C(=O)NC(C)C)CC4)c3c2)cc1OC (stereo not shown) [Example 119, 4-(5-(3,4-Dimethoxyphenyl)-1H-pyrrolo[2,3-b]pyridin-3-yl)-N-isopropyl-2-phenyl-5,6-dihydropyridine-1(2H)-carboxamide]	5410 nM	3470 nM
CC1CN(C(=O)NC2CCCC2)CC=C1c1c[nH]c2ncc(-c3ccc(S(C)(=O)=O)cc3)cc12 (stereo not shown) [Example 121, N-cyclopentyl-5-methyl-4-(5-(4-(methylsulfonyl)phenyl)-1H-pyrrolo[2,3-b]pyridin-3-yl)-5,6-dihydropyridine-1(2H)-carboxamide]	97 nM	330 nM
CC1CN(C(=O)NC2CCCC2)CC=C1c1c[nH]c2ncc(-c3cccc(S(C)(=O)=O)c3)cc12 (stereo not shown) [Example 122, N-cyclopentyl-5-methyl-4-(5-(3-(methylsulfonyl)phenyl)-1H-pyrrolo[2,3-b]pyridin-3-yl)-5,6-dihydropyridine-1(2H)-carboxamide]	36 nM	97 nM
CC1CN(C(=O)NC2CCCC2)CC=C1c1c[nH]c2ncc(-c3cccc(S(N)(=O)=O)c3)cc12 (stereo not shown) [Example 123, N-cyclopentyl-5-methyl-4-(5-(3-sulfamoylphenyl)-1H-pyrrolo[2,3-b]pyridin-3-yl)-5,6-dihydropyridine-1(2H)-carboxamide]	28 nM	80 nM
CC(C)NC(=O)N1CC=C(c2c[nH]c3ncc(-c4ccc(CN5CCN(C)CC5)s4)cc23)C(C)C1 (stereo not shown) [Example 125, N-isopropyl-5-methyl-4-(5-(5-((4-methylpiperazin-1-yl)methyl)thiophen-2-yl)-1H-pyrrolo[2,3-b]pyridin-3-yl)-5,6-dihydropyridine-1(2H)-carboxamide]	3.6 nM	27 nM
